Source: patent US6737383B1, “Herbicidal oxadiazolidines” (priority 1999, dated 2004)

How the values were obtained:
smallflower flatsedge = test: Test B flood test smallflower flatsedge; type: in vivo, Cyperus difformis
Procedure, shortened: (§1)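 Read-out is a visual response score from 0 (no effect) to 10 (complete control), assigned by comparison with untreated controls. Treatment was applied at the 2-leaf stage, and plants stayed in the greenhouse for twelve to sixteen days before scoring.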

pigweed = test: Test B pre/postemergence pigweed; type: in vivo, Amaranthus retroflexus; conditions: for Redroot pigweed plant response rating: scale of 0 to 10 where 0 is no effect and 10 is complete control
Procedure, shortened: (§2)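 Response is a visual 0-to-10 score relative to untreated plants, where 0 means no effect and 10 means complete control, taken twelve to sixteen days after application. Treatments went onto soil at planting and onto foliage of 1- to 4-leaf plants, using a surfactant-containing non-phytotoxic solvent.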

sugar beet = test: Test B pre/postemergence sugar beet; type: in vivo, Beta vulgaris; conditions: for Sugarbeets plant response rating: scale of 0 to 10 where 0 is no effect and 10 is complete control
Procedure, shortened: as §2

rice = test: Test B flood test rice; type: in vivo, Oryza sativa
Procedure, shortened: as §1

velvetleaf = test: Test B pre/postemergence velvetleaf; type: in vivo, Abutilon theophrasti; conditions: for Velvetleaf plant response rating: scale of 0 to 10 where 0 is no effect and 10 is complete control
Procedure, shortened: as §2

cocklebur = test: Test B pre/postemergence cocklebur; type: in vivo, Xanthium strumarium; conditions: for Cocklebur plant response rating: scale of 0 to 10 where 0 is no effect and 10 is complete control
Procedure, shortened: as §2

corn = test: Test B pre/postemergence corn; type: in vivo, Zea mays; conditions: for Corn plant response rating: scale of 0 to 10 where 0 is no effect and 10 is complete control
Procedure, shortened: as §2

wild oat = test: Test B pre/postemergence wild oat; type: in vivo, Avena fatua; conditions: for Wild oats plant response rating: scale of 0 to 10 where 0 is no effect and 10 is complete control
Procedure, shortened: as §2

surinam grass = test: Test B pre/postemergence surinam grass; type: in vivo, Brachiaria decumbens
Procedure, shortened: as §2

bamyardgrass = test: Test B flood test barnyardgrass; type: in vivo, Echinochloa crus-galli
Procedure, shortened: as §1

purple nutsedge = test: Test B pre/postemergence purple nutsedge; type: in vivo, Cyperus rotundus; conditions: for Nutsedge plant response rating: scale of 0 to 10 where 0 is no effect and 10 is complete control
Procedure, shortened: as §2

soybean = test: Test B pre/postemergence soybean; type: in vivo, Glycine max; conditions: for Soybean plant response rating: scale of 0 to 10 where 0 is no effect and 10 is complete control
Procedure, shortened: as §2

crabgrass = test: Test B pre/postemergence crabgrass; type: in vivo, Digitaria sanguinalis; conditions: for Crabgrass plant response rating: scale of 0 to 10 where 0 is no effect and 10 is complete control
Procedure, shortened: as §2

giant foxtail = test: Test B pre/postemergence giant foxtail; type: in vivo, Setaria faberii; conditions: for Giant foxtail plant response rating: scale of 0 to 10 where 0 is no effect and 10 is complete control
Procedure, shortened: as §2

blackgrass = test: Test B pre/postemergence blackgrass; type: in vivo, Alopecurus myosuroides
Procedure, shortened: as §2

bedstraw = test: Test B pre/postemergence bedstraw; type: in vivo, Galium aparine; conditions: Preemergence; for Bedstraw plant response rating: scale of 0 to 10 where 0 is no effect and 10 is complete control
Procedure, shortened: as §2

[1] = Postemergence (flood test), Rate 125 g/ha, scale 0 to 10, 0 is no effect, 10 is complete control
[2] = Rate 62 g/ha, Postemergence (flood test species), scale of 0 to 10 where 0 is no effect and 10 is complete control
[3] = Rate 62 g/ha, flood test species, Pre-emergence, visual evaluation after twelve to sixteen days
[4] = Rate 125 g/ha, Pre-emergence, flood test species, scale 0 to 10 where 0 is no effect and 10 is complete control
[5] = Rate 250 g/ha, Pre-emergence, flood-test species, scale 0 to 10, 0 is no effect, 10 is complete control
[6] = Rate 500 g/ha, listed under Postemergence (flood test species), scale 0 to 10, 0 no effect, 10 complete control
[7] = Rate 500 g/ha, Pre-emergence, flood test species, scale 0 to 10 (0 no effect, 10 complete control)
[8] = Postemergence, Rate 125 g/ha, scale 0 to 10, 0 is no effect, 10 is complete control
[9] = Preemergence, Rate 62 g/ha, scale 0 to 10 (0 no effect, 10 complete control)
[10] = Rate 500 g/ha, Postemergence, scale 0 to 10, 0 no effect, 10 complete control
[11] = Preemergence, Rate 250 g/ha, scale of 0 to 10 where 0 is no effect and 10 is complete control
[12] = Preemergence, Rate 500 g/ha, scale of 0 to 10 where 0 is no effect and 10 is complete control
[13] = Rate 62 g/ha, Postemergence, scale of 0 to 10 where 0 is no effect and 10 is complete control
[14] = Rate 250 g/ha, Postemergence, scale of 0 to 10 where 0 is no effect and 10 is complete control

## CCC(CC)n1c(=O)on(C(=O)N(c2ccccc2)C(C)C)c1=O [Compound 354]
Smallflower flatsedge; [1]
  Plant response rating, S. Flatsedge: 8
Smallflower flatsedge; [2]
  S. Flatsedge plant response rating: 5
Smallflower flatsedge; [3]
  Plant response rating, S. Flatsedge (0 to 10 scale, 0 is no effect, 10 is complete control): 0
Smallflower flatsedge; [4]
  S. Flatsedge plant response rating: 0
Smallflower flatsedge; [5]
  S. Flatsedge plant response rating: 0
Smallflower flatsedge; [6]
  Plant response rating, S. Flatsedge: 9
Smallflower flatsedge; [7]
  S. Flatsedge plant response rating: 0
pigweed; [8]
  Plant response rating, Redroot pigweed: 3
pigweed; [9]
  Plant response rating, Redroot pigweed: 5
pigweed; Preemergence, Rate 125 g/ha
  Redroot pigweed plant response rating (0 to 10 scale): 7
pigweed; Preemergence, Rate 250 g/ha
  Redroot pigweed plant response rating: 10
pigweed; Preemergence, Rate 500 g/ha
  Redroot pigweed plant response rating: 10
pigweed; Rate 62 g/ha, Postemergence
  Redroot pigweed plant response rating: 2
pigweed; [10]
  Plant response rating, Redroot pigweed: 7
Sugar beet; [8]
  Plant response rating, Sugarbeets: 1
Sugar beet; [9]
  Plant response rating, Sugarbeets: 0
Sugar beet; Preemergence, Rate 125 g/ha
  Sugarbeets plant response rating (0 to 10 scale): 0
Sugar beet; Preemergence, Rate 250 g/ha
  Sugarbeets plant response rating: 2
Sugar beet; Preemergence, Rate 500 g/ha
  Sugarbeets plant response rating: 6
Sugar beet; Rate 62 g/ha, Postemergence
  Sugarbeets plant response rating: 0
Sugar beet; [10]
  Plant response rating, Sugarbeets: 3
rice; [1]
  Plant response rating, Rice: 0
rice; [2]
  Rice plant response rating: 0
rice; [3]
  Plant response rating, Rice (0 to 10 scale, 0 is no effect, 10 is complete control): 0
rice; [4]
  Rice plant response rating: 0
rice; [5]
  Rice plant response rating: 0
rice; [6]
  Plant response rating, Rice: 2
rice; [7]
  Rice plant response rating: 0
velvetleaf; [8]
  Plant response rating, Velvetleaf: 0
velvetleaf; [9]
  Plant response rating, Velvetleaf: 1
velvetleaf; Preemergence, Rate 125 g/ha
  Velvetleaf plant response rating (0 to 10 scale): 5
velvetleaf; Preemergence, Rate 250 g/ha
  Velvetleaf plant response rating: 6
velvetleaf; Preemergence, Rate 500 g/ha
  Velvetleaf plant response rating: 7
velvetleaf; Rate 62 g/ha, Postemergence
  Velvetleaf plant response rating: 0
velvetleaf; [10]
  Plant response rating, Velvetleaf: 2
cocklebur; [8]
  Plant response rating, Cocklebur: 0
cocklebur; [9]
  Plant response rating, Cocklebur: 0
cocklebur; Preemergence, Rate 125 g/ha
  Cocklebur plant response rating (0 to 10 scale): 0
cocklebur; Preemergence, Rate 250 g/ha
  Cocklebur plant response rating: 0
cocklebur; Rate 62 g/ha, Postemergence
  Cocklebur plant response rating: 0
cocklebur; [10]
  Plant response rating, Cocklebur: 1
corn; [8]
  Plant response rating, Corn: 0
corn; [9]
  Plant response rating, Corn: 0
corn; Preemergence, Rate 125 g/ha
  Corn plant response rating (0 to 10 scale): 0
corn; Preemergence, Rate 250 g/ha
  Corn plant response rating: 3
corn; Preemergence, Rate 500 g/ha
  Corn plant response rating: 6
corn; Rate 62 g/ha, Postemergence
  Corn plant response rating: 0
corn; [10]
  Plant response rating, Corn: 0
Wild oat; [8]
  Plant response rating, Wild oats: 0
Wild oat; [9]
  Plant response rating, Wild oats: 0
Wild oat; Preemergence, Rate 125 g/ha
  Wild oats plant response rating (0 to 10 scale): 4
Wild oat; Preemergence, Rate 250 g/ha
  Wild oats plant response rating: 6
Wild oat; Preemergence, Rate 500 g/ha
  Wild oats plant response rating: 8
Wild oat; Rate 62 g/ha, Postemergence
  Wild oats plant response rating: 0
Wild oat; [10]
  Plant response rating, Wild oats: 3
Surinam grass; [8]
  Plant response rating, B. signalgrass: 0
Surinam grass; [9]
  Plant response rating, B. signalgrass: 1
Surinam grass; Preemergence, Rate 125 g/ha
  B. signalgrass plant response rating (0 to 10 scale, 0 is no effect, 10 is complete control): 5
Surinam grass; [11]
  B. signalgrass plant response rating: 5
Surinam grass; [12]
  B. signalgrass plant response rating: 5
Surinam grass; [13]
  B. signalgrass plant response rating: 0
Surinam grass; [14]
  Plant response rating, B. signalgrass: 0
Surinam grass; [10]
  Plant response rating, B. signalgrass: 2
bamyardgrass; [1]
  Plant response rating, Barnyardgrass: 4
bamyardgrass; [2]
  Barnyardgrass plant response rating: 0
bamyardgrass; [3]
  Plant response rating, Barnyardgrass (0 to 10 scale, 0 is no effect, 10 is complete control): 0
bamyardgrass; [4]
  Barnyardgrass plant response rating: 0
bamyardgrass; Rate 250 g/ha, Postemergence (flood test species), scale of 0 to 10 where 0 is no effect and 10 is complete control
  Plant response rating, Barnyardgrass: 7
bamyardgrass; [5]
  Barnyardgrass plant response rating: 0
bamyardgrass; [6]
  Plant response rating, Barnyardgrass: 9
bamyardgrass; [7]
  Barnyardgrass plant response rating: 0
Purple nutsedge; [8]
  Plant response rating, Nutsedge: 0
Purple nutsedge; [9]
  Plant response rating, Nutsedge: 0
Purple nutsedge; Preemergence, Rate 125 g/ha
  Nutsedge plant response rating (0 to 10 scale): 0
Purple nutsedge; Preemergence, Rate 250 g/ha
  Nutsedge plant response rating: 0
Purple nutsedge; Preemergence, Rate 500 g/ha
  Nutsedge plant response rating: 0
Purple nutsedge; Rate 62 g/ha, Postemergence
  Nutsedge plant response rating: 0
Purple nutsedge; [10]
  Plant response rating, Nutsedge: 0
soybean; [8]
  Plant response rating, Soybean: 5
soybean; [9]
  Plant response rating, Soybean: 0
soybean; Preemergence, Rate 125 g/ha
  Soybean plant response rating (0 to 10 scale): 0
soybean; Preemergence, Rate 250 g/ha
  Soybean plant response rating: 0
soybean; Preemergence, Rate 500 g/ha
  Soybean plant response rating: 1
soybean; Rate 62 g/ha, Postemergence
  Soybean plant response rating: 3
soybean; [10]
  Plant response rating, Soybean: 7
crabgrass; [8]
  Plant response rating, Crabgrass: 2
crabgrass; [9]
  Plant response rating, Crabgrass: 9
crabgrass; Preemergence, Rate 125 g/ha
  Crabgrass plant response rating (0 to 10 scale): 9
crabgrass; Preemergence, Rate 250 g/ha
  Crabgrass plant response rating: 9
crabgrass; Preemergence, Rate 500 g/ha
  Crabgrass plant response rating: 10
crabgrass; Rate 62 g/ha, Postemergence
  Crabgrass plant response rating: 0
crabgrass; [10]
  Plant response rating, Crabgrass: 3
Giant foxtail; [8]
  Plant response rating, Giant foxtail: 4
Giant foxtail; [9]
  Plant response rating, Giant foxtail: 10
Giant foxtail; Preemergence, Rate 125 g/ha
  Giant foxtail plant response rating (0 to 10 scale): 10
Giant foxtail; Preemergence, Rate 250 g/ha
  Giant foxtail plant response rating: 10
Giant foxtail; Preemergence, Rate 500 g/ha
  Giant foxtail plant response rating: 10
Giant foxtail; Rate 62 g/ha, Postemergence
  Giant foxtail plant response rating: 0
Giant foxtail; [10]
  Plant response rating, Giant foxtail: 9
blackgrass; [8]
  Plant response rating, Blackgrass: 5
blackgrass; [9]
  Plant response rating, Blackgrass: 3
blackgrass; Preemergence, Rate 125 g/ha
  Blackgrass plant response rating (0 to 10 scale): 4
blackgrass; [11]
  Blackgrass plant response rating: 8
blackgrass; [12]
  Blackgrass plant response rating: 9
blackgrass; [13]
  Blackgrass plant response rating: 3
blackgrass; [14]
  Plant response rating, Blackgrass: 7
blackgrass; [10]
  Plant response rating, Blackgrass: 9
bedstraw; Rate 62 g/ha, scale 0 to 10 (0 no effect, 10 complete control)
  Plant response rating, Bedstraw: 0
bedstraw; Rate 125 g/ha
  Bedstraw plant response rating (0 to 10 scale): 0
bedstraw; Rate 250 g/ha
  Bedstraw plant response rating: 0
bedstraw; Rate 500 g/ha
  Bedstraw plant response rating: 0
